One assay deals with BRAF_V600K (Homo sapiens, UniProt P15056, V600K). The experiment in a line: RAF kinase biochemical assay, BRAF V600K. The conditions noted are these: Table 3; ATP 100 μM. How it is done:
(§1) BRAF proteins were produced in insect cells at Plexxikon Inc. as N-terminally His-tagged fragments encompassing the kinase domain.
(§2) 1) Test compounds in DMSO were serially diluted and plated into 384-well assay plates at 1 μL/well.
(§3) 2) Added were 15 μL/well of RAF enzyme and biotinylated-MEK1 substrate in kinase buffer.
(§4) 3) Added were 4 μL of ATP (500 μM) in kinase buffer.
(§5) 5) After a brief spin down, the plate was incubated at about room temperature for 40-50 minutes. 6) Added was 5 μL of Stop buffer at final EDTA 20 mM; anti-phospho-MEK1 1:2,500; donor/acceptor beads 3 μg/mL. 7) After brief spin down, the plate was incubated at room temperature for about 3 hours. 8) The plate was read on the Envision multilabel plate reader (Perkin Elmer). […] 2. Results

Assay [1] has as its target NIH/3T3 cells stably expressing KIAA1549-BRAF fusions (Homo sapiens, UniProt P15056). Description: BRAF fusion xenograft tumor growth. In kind it is in vivo, balb/c nu/nu mice. The conditions noted are these: all three xenografts (three of the four KIAA1549-BRAF fusions); flank of balb/c nu/nu mice. How it is done: NIH/3T3 (ATCC® CRL-1658™) cells stably expressing KIAA1549-BRAF fusions (Fusion-1, Fusion-2, Fusion-3, and Fusion-4) were injected into the flank of balb/c nu/nu mice. Tumor growth was measured with calipers. Ellipsoid tumor volume was calculated using the following formula: volume=½·length·width^2.

In assay [2] the test system is BRAF-V600E in vemurafenib-resistant SK-MEL-239 C3 cells.
A further assay addresses BRAF_V600A (Homo sapiens, UniProt P15056, V600A). Description: RAF kinase biochemical assay, BRAF V600A. As to conditions: Table 3; ATP 100 μM. On the procedure: as §1, §2, §3, §4, §5
The next assay has as its target BRAF_V600M (Homo sapiens, UniProt P15056, V600M). Description: RAF kinase biochemical assay, BRAF V600M. As to conditions: Table 3; ATP 100 μM. On the procedure:
as §1, §2, §3, §4, §5

The next assay deals with BRAF_V600G (Homo sapiens, UniProt P15056, V600G). Description: RAF kinase biochemical assay, BRAF V600G. The conditions noted are these: Table 3; ATP 100 μM. On the procedure: as §1, §2, §3, §4, §5
The subject of another assay is MV-4-11 cells. The experiment in a line: Growth assay (CellTiter-Glo), MV-4-11. In kind it is cell-based. The conditions noted are these: Homo sapiens, MV4-11, 72 h; biphenotypic B myelomonocytic leukemia; BRAF WT, RAS WT; 3 days. The source says:
(§6) In order to determine the effects of Formula I on proliferation, a growth assay was established using melanoma cells (A375 and COLO829) and colorectal carcinoma cells (COLO205, HT-29) which each express the BRAFV600E mutation. To show selectivity over wild-type BRAF, several BRAF wild-type cell lines (K562, NOMO-1, MV-4-11 and ML-2) were also examined in the growth assay. The growth assay implemented the Promega CellTiter-Glo Luminescent Cell viability assay, which gives a luminescent readout that is proportional to the amount of ATP present in a cell sample. As ATP levels directly correlate with the number of viable cells, the luminescent signal can be used to determine the potency of Formula I to block the proliferation of the cell lines of interest.
(§7) 1. 3,000 cells were plated in each well for cell lines A375, COLO205, COLO829, HT-29, and SK-MEL-3. 25,000 cells were plated in each well for cell lines K562, ML-2, MV-4-11, and
(§8) NOMO-1 of a 96-well tissue-culture-treated plate (Corning #3610) in a 50 μL volume. Cells were incubated overnight at 37° C.
(§9) 2. Each test compound was plated as an 8-point titration, using 1:3 dilutions in DMSO. The maximum concentration was about 5 mM. Dilute DMSO and test compound of Formula I 1:250 in growth media.
3. […]
(§10) 4. […] Luminescence was measured on a Tecan Safire plate reader. […]
Background: ATP-based viability assays read luminescence as a measure of living cells.

The test system of assay [3] is BRAF-V600E in SK-MEL-239 parental cells. Description: ERK/MEK phosphorylation and growth assays, SK-MEL-239 parental. In kind it is cell-based.
For another assay, the system named is ML-2 cells. The experiment in a line: Growth assay (CellTiter-Glo), ML-2. In kind it is cell-based. As to conditions: Homo sapiens, ML-2, 72 h; acute myelomonocytic leukemia; BRAF WT, KRAS-A146T; 3 days.
Source text: as §6, §7, §8, §9
3. […]
as §10

Another assay relates to K562 cells. The experiment in a line: Growth assay (CellTiter-Glo), K562. It is filed as cell-based. The conditions noted are these: Homo sapiens, K562, 72 h; chronic myeloid leukemia; BRAF WT, RAS WT; 3 days.
Source text: as §6, §7, §8, §9
3. […]
as §10

In assay [4] the test system is pERK in A431 cells (over-expression of EGFR). The experiment in a line: pERK levels in A431. It is filed as cell-based. The conditions noted are these: human SCC cell line. How it is done:
(§11) The compound of Formula II was also evaluated in the human SCC cell line A431 and the human breast adenocarcinoma cell line SKBR3 as these cells achieve MAPK pathway activation by upstream signals feeding into RAS (through over-expression of EGFR and HER2, respectively).
(§12) Phospho-ERK AlphaScreen® assay: The degree of ERK phosphorylation was determined using an AlphaScreen® assay where an increase in ERK1/2 phosphorylation at Thr202/Tyr204 brought the donor and acceptor AlphaScreen® beads into close proximity, generating a signal for quantification. To determine the effects of compound treatment on phosphorylation of ERK1/2, cells were plated in a 96-well plate and treated with an 8-point titration of compound for one hour at 37° C. before lysis. To detect pERK, cell lysates were incubated with streptavidin-coated AlphaScreen® donor beads, anti-mouse IgG AlphaScreen® acceptor beads, a biotinylated anti-ERK1/2 rabbit antibody, and a mouse antibody that recognizes ERK1/2 only when it is phosphorylated on Thr202 and Tyr204. […] An increase in ERK1/2 phosphorylation at Thr202/Tyr204 brings the donor and acceptor AlphaScreen® beads into close proximity, generating a signal that can be quantified on an EnVision reader (Perkin Elmer).
(§13) Phospho-ERK immunoblot analysis: Western blots were performed by standard techniques and analyzed on an Odyssey Infrared Scanner (Li-COR Biosciences). […]

Assay [5] relates to pERK in SKBR3 cells (over-expression of HER2). Description: pERK levels in SKBR3. In kind it is cell-based. The conditions noted are these: human breast adenocarcinoma cell line. How it is done:
as §11, §12, §13

The source of these data is patent US9814714B2, “Kinase modulation, and indications therefor” (Plexxikon Inc., priority 2015, dated 2017).

Sequence of BRAF_V600A (P15056 432-726 V600A): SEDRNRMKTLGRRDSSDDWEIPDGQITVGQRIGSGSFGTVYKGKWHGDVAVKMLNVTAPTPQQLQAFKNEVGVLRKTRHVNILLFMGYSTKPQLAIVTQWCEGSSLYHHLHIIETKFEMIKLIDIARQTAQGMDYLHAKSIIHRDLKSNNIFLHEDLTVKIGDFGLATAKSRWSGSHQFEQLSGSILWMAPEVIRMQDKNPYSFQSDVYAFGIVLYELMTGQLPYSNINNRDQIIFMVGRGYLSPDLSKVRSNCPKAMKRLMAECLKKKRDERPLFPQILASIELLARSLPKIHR
Sequence of NIH/3T3 cells stably expressing KIAA1549-BRAF fusions (P15056 448-766 limits assumed): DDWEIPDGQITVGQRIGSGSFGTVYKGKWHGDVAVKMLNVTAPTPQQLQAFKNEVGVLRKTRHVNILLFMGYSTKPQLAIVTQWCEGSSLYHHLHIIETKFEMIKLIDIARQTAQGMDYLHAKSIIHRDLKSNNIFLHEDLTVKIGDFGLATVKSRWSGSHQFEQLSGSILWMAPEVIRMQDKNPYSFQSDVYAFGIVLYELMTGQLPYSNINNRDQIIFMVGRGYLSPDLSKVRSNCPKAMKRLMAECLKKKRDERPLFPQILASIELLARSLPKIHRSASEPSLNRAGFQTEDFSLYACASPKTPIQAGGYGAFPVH
Sequence of BRAF_V600K (P15056 448-723 V600K): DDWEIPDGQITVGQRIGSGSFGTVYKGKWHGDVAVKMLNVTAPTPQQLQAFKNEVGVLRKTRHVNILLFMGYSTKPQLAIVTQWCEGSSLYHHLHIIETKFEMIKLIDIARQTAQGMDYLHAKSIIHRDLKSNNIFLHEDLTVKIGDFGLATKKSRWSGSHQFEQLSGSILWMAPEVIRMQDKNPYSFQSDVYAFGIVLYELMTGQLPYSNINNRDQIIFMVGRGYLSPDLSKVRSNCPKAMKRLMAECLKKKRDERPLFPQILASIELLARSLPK
Sequence of BRAF_V600G (P15056 432-726 V600G): as the sequence (P15056 432-726 V600A) above, with A169G counted along it
Sequence of BRAF_V600M (P15056 432-726 V600M): as the sequence (P15056 432-726 V600A) above, with A169M counted along it

By IC50 is commonly meant the midpoint of a concentration-inhibition curve. As to `O=C(c1c(F)ccc(NS(=O)(=O)N2CC[C@@H](F)C2)c1F)c1c[nH]c2ncc(-c3cnc(C4CC4)nc3)cc12` [Formula I, (3R)—N-[3-[5-(2-cyclopropylpyrimidin-5-yl)-1H-pyrrolo[2,3-b]pyridine-3-carbonyl]-2,4-difluorophenyl]-3-fluoropyrrolidine-1-sulfonamide], the IC50 against BRAF_V600K was 3.9 nM; against BRAF_V600A, 14.2 nM; against BRAF_V600M it was 9.8 nM; against BRAF_V600G, 6.3 nM; with MV-4-11 cells, above 10000 nM; with ML-2 cells it was above 10000 nM. In the assay with K562 cells, this compound yielded a 50% inhibitory concentration (IC50) above 10000 nM. Besides, the “Inhibition of xenograft growth (tumor volume)” value in [1] was at least 50%. In addition, the “Inhibition of BRAF-V600E in vemurafenib-resistant C3 (in words)” value in assay [2] is “potent inhibitor”. In addition, the “Inhibition of BRAF-V600E in SK-MEL-239 parental (in words)” value in assay [3] is on record as “potent inhibitor”.
As for `CCN(C)S(=O)(=O)Nc1ccc(F)c(C(=O)c2c[nH]c3ncc(-c4cnc(C5CC5)nc4)cc23)c1F` [Formula II, 5-(2-cyclopropylpyrimidin-5-yl)-3-[3-[[ethyl(methyl)sulfamoyl]amino]-2,6-difluoro-benzoyl]-1H-pyrrolo[2,3-b]pyridine], in assay [4], the “Change of pERK levels in A431 (in words)” value is given as “did not increase pERK levels”. The “Change of pERK levels in SKBR3 (in words)” value in assay [5] is on record as “did not increase pERK levels”.
